The values that follow come from patent US20250026742A1 (SUZHOU ARK BIOPHARMACEUTICAL CO., LTD., priority 2021, published 2025).

The target in one series is ATR kinase (Homo sapiens (Human), UniProt Q13535). The series can be described thus: ATR enzyme activity inhibition assay (HTRF). It is filed as biochemical. Conditions: p53 substrate, full-length ATR enzyme. How it is done: The inhibitory ability to ATR kinase for selected compounds was tested by the HTRF (Homogeneous Time-Resolved Fluorescence). In the reaction system, After the substrate p53 is phosphorylated by ATR, the anti-phospho-p53-Eu that serves as an energy donor and specifically binds to the phosphorylation site on p53 is added. Then, the anti-GST-d2 as an energy acceptor that specifically binds to the GST tag carried on p53 is added. […] The IC50 of the sample to be tested can be obtained through graphing and calculation.
Prepare various buffer systems required for the experiment: • 1. […] Prepare detection buffer: Dilute each of the anti-phospho-p53-Eu cryptate (Cisbio, Cat #61P08KA) and anti-GST-d2 (Cisbio, Cat #61GSTDLB) to 1 unit using HTRF detection buffer (Cisbio, Cat #62SDBRDF).
Powdered compounds were dissolved in DMSO to from a stock solution at a concentration of 10 mM. The solution of compounds to be tested at a concentration of […] was performed a 3-fold dilution for 10 concentrations with DMSO. […] 5 μL of ATR was added to each well accordingly. Each well is incubated at 25° C. for 10 min, added with 5 μL of reaction substrate, incubated at 25° C. for 90 min and added with 10 μL of detection solution. […] The inhibition curves of the compounds were made by the four-parameter […] regression equation of XLfit software, and the inhibition rates of the compounds were calculated.
Background: Time-resolved FRET reads energy transfer from a long-lived donor to a nearby acceptor.

Series [1] concerns human lung cancer NCI-H23 cells. The series can be described thus: In vivo pharmacodynamics in the NCI-H23 subcutaneous graft tumor model. Also noted: species or system CB.17/SCID mouse. Conditions: for TGI (%) / Tumor change (%): 14 days after administration; for TGI (%) / Tumor change (%) / Tumor volume (mm^3) day 0 / Tumor volume (mm^3) day 14: 12.5 mg/kg PO QD + Cisplatin 1.5 mg/kg IP QW, NCI-H23 xenograft, CB.17/SCID mice; for body weight of mice after drug administration / decrease in tumor volume compared to the Cisplatin+VX-970 group: combination with Cisplatin; for body weight of mice after drug administration: no difference in body weight loss between the groups (FIG. 1); for Tumor volume (mm^3) day 0: day 0 (start of administration); for Tumor volume (mm^3) day 14: 2 weeks; for decrease in tumor volume compared to the Cisplatin+VX-970 group: p<0.05 in T-test (FIGS. 2 and 3). How it is done: • 1, cell culture: human lung cancer NCI-H23 cells (ATCC, Item No.: CRL-5800) are performed with an in vitro monolayer culture. […] Trypsin-EDTA was used for conventional digestion and treatment of passaging twice a week. When the cell saturation is […] and the number meets the requirement, the cells are collected, counted and inoculated. • 2, Animals: CB.17/SCID mouse, female, 6-8 weeks old, weighing 18-22 grams. A total of 84 mice are needed, which are provided by Beijing Viton Lihua Laboratory Animal Technology Co., Ltd. or equivalent qualified suppliers. • 3.
• 4. Tumor inoculation: 0.2 mL (10×10^6 cells) of NCI-H23 cells (plus stromal gel, volume ratio 1:1) were subcutaneously inoculated into the right back of each mouse. Mice are grouped for drug administration when the average tumor volume reached about 200 mm^3. Animals were weighed before dosing and tumor volumes were measured. Groups were randomized according to tumor volume (randomized area group design).
• 1 ? The experimental index is to examine whether the tumor growth is inhibited, delayed or cured. […] Calculation of Tumor change (%): Tumor change (%)=(average tumor volume at the end of administration of a treatment group−average tumor volume at the beginning of administration of a treatment group)/average tumor volume at the beginning of administration of a treatment group×100%. Tumor change (%): less than 0, non-growth of the tumor in the mice after the drug administration, and the existence of inhibition. • 6.

ATR kinase, sequence (Q13535 whole entry): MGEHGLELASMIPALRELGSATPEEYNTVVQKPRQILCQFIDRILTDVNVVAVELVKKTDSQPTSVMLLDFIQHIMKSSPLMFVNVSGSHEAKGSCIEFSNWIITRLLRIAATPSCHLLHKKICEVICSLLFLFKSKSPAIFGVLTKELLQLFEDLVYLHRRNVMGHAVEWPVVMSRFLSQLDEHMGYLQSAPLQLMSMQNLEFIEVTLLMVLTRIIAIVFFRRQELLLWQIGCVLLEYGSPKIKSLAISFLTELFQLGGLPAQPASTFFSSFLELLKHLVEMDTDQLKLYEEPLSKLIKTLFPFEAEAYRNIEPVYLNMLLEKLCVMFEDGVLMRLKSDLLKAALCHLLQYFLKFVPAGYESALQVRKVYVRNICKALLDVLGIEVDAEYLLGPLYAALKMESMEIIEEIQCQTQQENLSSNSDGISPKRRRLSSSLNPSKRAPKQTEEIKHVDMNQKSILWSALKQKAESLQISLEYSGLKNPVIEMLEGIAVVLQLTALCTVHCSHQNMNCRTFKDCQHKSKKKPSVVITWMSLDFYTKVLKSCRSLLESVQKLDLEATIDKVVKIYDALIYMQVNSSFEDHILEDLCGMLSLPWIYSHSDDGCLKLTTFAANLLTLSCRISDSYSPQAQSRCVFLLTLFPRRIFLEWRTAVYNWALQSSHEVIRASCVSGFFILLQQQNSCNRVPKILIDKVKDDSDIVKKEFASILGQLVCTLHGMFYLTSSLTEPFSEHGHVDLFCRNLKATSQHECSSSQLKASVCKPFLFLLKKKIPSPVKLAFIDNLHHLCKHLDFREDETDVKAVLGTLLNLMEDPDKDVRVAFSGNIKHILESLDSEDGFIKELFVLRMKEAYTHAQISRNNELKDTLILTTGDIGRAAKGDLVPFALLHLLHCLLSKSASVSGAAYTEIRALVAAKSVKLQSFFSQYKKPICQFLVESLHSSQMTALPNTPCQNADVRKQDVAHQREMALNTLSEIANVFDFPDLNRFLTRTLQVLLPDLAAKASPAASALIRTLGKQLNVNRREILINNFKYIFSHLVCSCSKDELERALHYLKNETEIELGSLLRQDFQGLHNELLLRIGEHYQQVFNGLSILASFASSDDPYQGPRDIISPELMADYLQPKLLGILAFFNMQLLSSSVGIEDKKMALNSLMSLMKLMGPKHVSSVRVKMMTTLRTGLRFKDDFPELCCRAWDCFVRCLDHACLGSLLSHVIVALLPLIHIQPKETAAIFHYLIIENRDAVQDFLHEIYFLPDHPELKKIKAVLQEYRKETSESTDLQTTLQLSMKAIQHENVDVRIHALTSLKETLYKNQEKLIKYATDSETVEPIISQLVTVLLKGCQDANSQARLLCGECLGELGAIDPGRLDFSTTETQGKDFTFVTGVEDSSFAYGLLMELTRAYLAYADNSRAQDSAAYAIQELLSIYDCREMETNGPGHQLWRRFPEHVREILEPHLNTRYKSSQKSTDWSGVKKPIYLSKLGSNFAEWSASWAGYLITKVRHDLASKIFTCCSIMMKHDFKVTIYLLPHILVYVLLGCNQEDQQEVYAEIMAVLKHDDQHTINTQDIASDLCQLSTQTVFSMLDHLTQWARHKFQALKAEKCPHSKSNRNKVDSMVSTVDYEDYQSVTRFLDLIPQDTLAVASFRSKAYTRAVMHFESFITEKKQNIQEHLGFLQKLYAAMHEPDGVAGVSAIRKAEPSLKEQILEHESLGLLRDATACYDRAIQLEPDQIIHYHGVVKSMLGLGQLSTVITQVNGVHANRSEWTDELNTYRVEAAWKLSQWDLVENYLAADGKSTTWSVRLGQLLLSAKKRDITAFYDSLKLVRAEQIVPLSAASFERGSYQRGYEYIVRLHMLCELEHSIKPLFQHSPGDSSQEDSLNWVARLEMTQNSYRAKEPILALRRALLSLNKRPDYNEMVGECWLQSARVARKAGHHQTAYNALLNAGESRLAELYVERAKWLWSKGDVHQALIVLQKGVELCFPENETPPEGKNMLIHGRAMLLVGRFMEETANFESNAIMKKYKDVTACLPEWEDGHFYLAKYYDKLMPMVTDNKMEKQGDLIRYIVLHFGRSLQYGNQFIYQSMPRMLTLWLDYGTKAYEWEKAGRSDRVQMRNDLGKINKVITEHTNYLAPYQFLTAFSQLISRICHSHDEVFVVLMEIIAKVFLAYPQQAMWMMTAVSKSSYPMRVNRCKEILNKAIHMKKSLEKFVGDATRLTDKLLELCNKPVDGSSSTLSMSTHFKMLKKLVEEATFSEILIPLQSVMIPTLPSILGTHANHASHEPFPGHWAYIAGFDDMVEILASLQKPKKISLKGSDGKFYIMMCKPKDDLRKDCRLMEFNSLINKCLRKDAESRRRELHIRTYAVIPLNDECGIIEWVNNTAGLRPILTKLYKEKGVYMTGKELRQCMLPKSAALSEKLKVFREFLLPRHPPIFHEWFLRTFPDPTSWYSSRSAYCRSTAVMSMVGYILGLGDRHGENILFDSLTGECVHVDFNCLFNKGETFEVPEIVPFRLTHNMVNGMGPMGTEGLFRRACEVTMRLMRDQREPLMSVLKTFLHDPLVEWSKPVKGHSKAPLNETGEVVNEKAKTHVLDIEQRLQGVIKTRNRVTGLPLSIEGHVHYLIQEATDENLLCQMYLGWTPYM
ATR kinase, sequence (Q8WXE1 whole entry partner): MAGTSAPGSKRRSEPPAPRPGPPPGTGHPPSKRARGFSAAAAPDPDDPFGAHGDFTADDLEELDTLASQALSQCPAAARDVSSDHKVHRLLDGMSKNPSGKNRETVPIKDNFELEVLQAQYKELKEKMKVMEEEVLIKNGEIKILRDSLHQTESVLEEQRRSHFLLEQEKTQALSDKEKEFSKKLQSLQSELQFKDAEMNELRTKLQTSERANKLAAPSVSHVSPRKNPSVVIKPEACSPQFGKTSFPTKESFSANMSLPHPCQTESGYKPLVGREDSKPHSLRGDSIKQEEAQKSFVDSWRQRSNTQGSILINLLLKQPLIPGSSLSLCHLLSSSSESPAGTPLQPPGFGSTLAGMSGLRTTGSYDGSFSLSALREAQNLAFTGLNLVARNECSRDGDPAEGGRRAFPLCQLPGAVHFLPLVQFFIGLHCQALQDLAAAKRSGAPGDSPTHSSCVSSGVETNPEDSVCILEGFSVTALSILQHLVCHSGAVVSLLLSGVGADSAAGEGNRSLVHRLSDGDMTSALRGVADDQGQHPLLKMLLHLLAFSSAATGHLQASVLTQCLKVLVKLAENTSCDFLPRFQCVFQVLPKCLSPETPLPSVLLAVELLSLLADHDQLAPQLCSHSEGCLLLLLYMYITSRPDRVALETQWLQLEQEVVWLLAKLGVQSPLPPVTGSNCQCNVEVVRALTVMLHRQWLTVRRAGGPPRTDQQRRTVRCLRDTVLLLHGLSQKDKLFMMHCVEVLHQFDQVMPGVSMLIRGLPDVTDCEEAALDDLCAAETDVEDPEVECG

The term IC50 denotes the concentration that gives 50% inhibition. Low values mean higher potency, high ones lower potency. On ATR kinase, `CNCc1ccc(-c2cc(-c3nc(-c4ccc5c(c4)C(F)C(C)(C)S5(=O)=O)cnc3N)no2)cc1` (stereo not drawn) [Example 34, 5-(5-amino-6-(5-(4-((methylamino)methyl)phenyl)isoxazol-3-yl)pyrazin-2-yl)-3-fluoro-2,2-dimethyl-2,3-dihydrobenzo[b]thiophene 1,1-dioxide] gave an IC50 of 0.92 nM. This lies in the sub-nanomolar range.

On ATR kinase, `CN1CCC(NCc2ccc(-c3nnc(-c4nc(-c5ccc6c(c5)C(F)C(C)(C)S6(=O)=O)cnc4N)o3)cc2)CC1` (stereo not drawn) [Example 36] returned a 50% inhibitory concentration (IC50) of 0.57 nM.

`CNCc1ccc(-c2nnc(-c3nc(-c4ccc5c(c4)C(F)C(C)(C)S5(=O)=O)cnc3N)s2)cc1` (stereo not drawn) [Example 37, 5-(5-amino-6-(5-(4-((methylamino)methyl)phenyl)-1,3,4-thiadiazol-2-yl)pyrazin-2-yl)-3-fluoro-2,2-dimethyl-2,3-dihydrobenzo[b]thiophene 1,1-dioxide] had an IC50 on ATR kinase of 0.77 nM.

In the case of `CNCc1ccc(-c2cc(-c3nc(-c4ccc(S(=O)(=O)C(C)C)cc4)cnc3N)on2)cc1` [VX-970, Berzosertib, reference compound], in series [1], the “TGI (%)” value stood at 128%, the “Tumor change (%)” value is on record as −12%, the “body weight of mice after drug administration” value (shortened to “body weight of mice”) is reported as “decrease in body weight” and the “Tumor volume (mm^3) day 0” value came out at 266 mm^3. In addition, the “Tumor volume (mm^3) day 14” value in series [1] was found to be 231 mm^3. Further, in series [1] (listed as VX970), the “Tumor change (%)” value is listed as −13%.

“(R)-5-(5-amino-6-(3-(4-((methylamino)methyl)phenyl)isoxazol-5-yl)pyrazin-2-yl)-3-fluoro-2,2-dimethyl-2,3-dihydrobenzo[b]thiophene 1,1-dioxide or (S)-5-(5-amino-6-(3-(4-((methylamino)methyl)phenyl)isoxazol-5-yl)pyrazin-2-yl)-3-fluoro-2,2-dimethyl-2,3-dihydrobenzo[b]thiophene 1,1-dioxide [Example 35-1 or 35-2]” came in with an IC50 against ATR kinase of 0.41 nM.

Consider “(R)-5-(5-amino-6-(3-(4-((methylamino)methyl)phenyl)isoxazol-5-yl-4-deuterium)pyrazin-2-yl)-3-fluoro-2,2-dimethyl-2,3-dihydrobenzo[b]thiophene 1,1-dioxide or (S)-5-(5-amino-6-(3-(4-((methylamino)methyl)phenyl)isoxazol-5-yl-4-deuterium)pyrazin-2-yl)-3-fluoro-2,2-dimethyl-2,3-dihydrobenzo[b]thiophene 1,1-dioxide [Example 38-1 or 38-2]”, for which, in series [1], the “TGI (%)” value was found to be 159%, the “Tumor change (%)” value is given as −29%, the “body weight of mice” value is listed as “decrease in body weight” and the “decrease in tumor volume compared to the Cisplatin+VX-970 group” value was “more obvious decrease in tumor volume”. In series [1], the “Tumor volume (mm^3) day 0” value is listed as 252 mm^3 and the “Tumor volume (mm^3) day 14” value was found to be 180 mm^3. The molecule also gave an IC50 against ATR kinase of 0.75 nM.

With “(R)-5-(5-amino-6-(5-(4-((methylamino)methylene)phenyl)-1,3,4-oxadiazol-2-yl)pyrazin-2-yl)-3-fluoro-2,2-dimethyl-2,3-dihydrobenzo[b]thiophene 1,1-dioxide or (S)-5-(5-amino-6-(5-(4-((methylamino)methylene)phenyl)-1,3,4-oxadiazol-2-yl)pyrazin-2-yl)-3-fluoro-2,2-dimethyl-2,3-dihydrobenzo[b]thiophene 1,1-dioxide [Example 33-1 or 33-2]”, in series [1], the “TGI (%)” value worked out at 245%, the “Tumor change (%)” value is −66%, the “body weight of mice” value was “decrease in body weight” and the “decrease in tumor volume compared to the Cisplatin+VX-970 group” value is “more obvious decrease in tumor volume”. Besides, in series [1], the “Tumor volume (mm^3) day 0” value was 267 mm^3 and the “Tumor volume (mm^3) day 14” value was determined as 92 mm^3. Moreover, at ATR kinase, the IC50 came to 0.83 nM.
